Tests used:
Type in all cases: physicochemical
[1] = Introduction of molecules into porous nanosheet crosslinked body (UV-visible, supernatant); conditions: adsorption from aqueous dispersion; Example 9
Experimental: A low-molecular weight compound was added, and caused to adsorb, to the aqueous dispersion of the porous γ-plu108-NS crosslinked body, and then the porous γ-plu108-NS crosslinked body was sedimented by centrifugation. The concentration of the low-molecular weight compound present in the supernatant liquid obtained at that time was determined by a UV-visible spectral method. Thus, the amount of the low-molecular weight compound adsorbing to the porous γ-plu108-NS crosslinked body was determined.

[2] = Introduction of molecules into crosslinked body of porous microstructural body (UV-visible, supernatant); conditions: adsorption from aqueous dispersion; Example 10
Experimental: A low-molecular weight compound was added, and caused to adsorb, to the aqueous dispersion of the porous γ-PPG4k-Plate crosslinked body, and then the porous γ-PPG4k-Plate crosslinked body was sedimented by centrifugation. The concentration of the low-molecular weight compound present in the supernatant liquid obtained at that time was determined by a UV-visible spectral method. Thus, the amount of the low-molecular weight compound adsorbing to the porous γ-PPG4k-Plate crosslinked body was determined.

[3] = Introduction of compounds into nanosheets, absorbance of supernatant after centrifugation; conditions: for introduction amount relative to the weight of the nanosheets: Examples 4-8; for introduction amount relative to the weight of the nanosheets / Weight of introduced compound/weight of nanosheets: crosslinked β-cyclodextrin nanosheets; for Weight of introduced compound/weight of nanosheets: Table 1; for Concentration of introduced compound before introduction: in nanosheet dispersion, defined in consideration of dilution with moisture in the dispersion; for Concentration of introduced compound before introduction / Concentration of introduced compound after introduction: nanosheets 43 mg/mL (Examples 4-6) or 17 mg/mL (Examples 7-8); for amount of compound introduced into the nanosheets (reduction in concentration before and after introduction): nanosheets 43 mg/mL (Examples 4-6) or 17 mg/mL (Example 8); for Concentration of introduced compound after introduction: supernatant after shaking at room temperature 48 hours and centrifugation, absorbance
Experimental: (§1) 700 Microliters of an aqueous solution (300 μg/mL) of 5-fluorouracil was added to 500 mg of the nanosheet dispersion-1 obtained in Example 1, and the mixture was shaken at room temperature for 48 hours. The nanosheet dispersion having introduced thereinto 5-fluorouracil was centrifuged (at 12,000 rpm for 10 minutes), and the supernatant liquid was collected.
The introduction amount of 5-fluorouracil was determined by the same process as that of Example 4 except that a concentration-absorbance calibration curve was produced at a predetermined wavelength (λ=270 nm).
as §1, with “(100” for “(300”, “hydrocortisone” for “5-fluorouracil”
The introduction amount of hydrocortisone was determined by the same process as that of Example 4 except that a concentration-absorbance calibration curve was produced at a predetermined wavelength (λ250 nm).
as §1, with “500” for “700”, “(30” for “(300”, “betamethasone” for “5-fluorouracil”, “100” for “500”
The introduction amount of betamethasone was determined by the same process as that of Example 4 except that a concentration-absorbance calibration curve was produced at a predetermined wavelength (λ=250 nm).
as §1, with “500” for “700”, “(30” for “(300”, “menadione” for “5-fluorouracil”, “100” for “500”
The introduction amount of menadione was determined by the same process as that of Example 4 except that a concentration-absorbance calibration curve was produced at a predetermined wavelength (λ=250 nm).

[4] = Introduction of rhodamine B into crosslinked nanosheets (fluorescence microscope); conditions: rhodamine B 100 μg/mL aqueous solution, shaken room temperature 24 hours, diluted fivefold
Experimental: 900 Microliters of an aqueous solution (100 μg/mL) of rhodamine B was added to 50 mg of the nanosheet dispersion-1 (sample IT-162) obtained in Example 1, and the mixture was shaken at room temperature for 24 hours. […] The results are shown in FIG. 10(A) and FIG. 10(B), respectively. The crystal structures of nanosheets were able to be observed with the phase-contrast microscope.

[5] = Introduction of rhodamine B into uncrosslinked nanosheets (fluorescence microscope); conditions: rhodamine B 1,000 μg/mL aqueous solution, shaken room temperature 24 hours
Experimental: 100 Microliters of an aqueous solution (1,000 μg/mL) of rhodamine B was added to 90 mL of the uncrosslinked nanosheet dispersion (sample IT-142) obtained in Comparative Example 1, and the mixture was shaken at room temperature for 24 hours. […] The results are shown in FIG. 11(A) and FIG. 11(B), respectively. The crystal structures of nanosheets were able to be observed with the phase-contrast microscope.

introduction amount relative to the weight of the nanosheets [3] [wt %]	Weight of introduced compound/weight of nanosheets [3] [%]	Concentration of introduced compound before introduction [3] [ng/mL]	amount of compound introduced into the nanosheets (reduction in concentration before and after introduction) [3] [µg/mL]	Concentration of introduced compound after introduction [3] [ng/mL]	introduction into the porous γ-PPG4k-Plate crosslinked body [2]	SMILES	other results
0.09	0.09	25000	15	10000	–	CC1=CC(=O)c2ccccc2C1=O [Menadione, menadione]	–
–	–	–	–	–	not introduced	O=C(O)c1cccnc1 [nicotinic acid]	–
–	–	–	–	–	not introduced	CCN(CC)c1ccc2c(-c3ccccc3C(=O)O)c3ccc(=[N+](CC)CC)cc-3oc2c1.[Cl-] [rhodamine B]	fluorescent coloring in the crystal structures (rhodamine B introduction) [4]: fluorescent coloring was observed; fluorescent coloring in the crystal structures (rhodamine B introduction) [5]: almost no fluorescent coloring was observed

Further lines, the compound ahead of its results:

SMILES	introduction amount relative to the weight of the nanosheets [3] [wt %]	Weight of introduced compound/weight of nanosheets [3] [%]	Concentration of introduced compound before introduction [3] [ng/mL]	amount of compound introduced into the nanosheets (reduction in concentration before and after introduction) [3] [µg/mL]	Concentration of introduced compound after introduction [3] [ng/mL]	introduction into the porous γ-PPG4k-Plate crosslinked body [2]	other results
CCCCC/C=C\C/C=C\CCCCCCCC(=O)O [linoleic acid]	–	–	–	–	–	–	ratio of the weight of the low-molecular weight compound to the total sum of the weights of the compound and the porous γ-plu108-NS crosslinked body [1]: 5.3 wt %; ratio of the weight of the low-molecular weight compound to the total sum of the weights of the compound and the porous γ-PPG4k-Plate crosslinked body [2]: 0.9 wt %
O=c1[nH]cc(F)c(=O)[nH]1 [5-Fluorouracil, 5-fluorouracil]	0.10	0.10	183000	45	138000	–	–
C[C@]12CCC(=O)C=C1CC[C@@H]1[C@@H]2[C@@H](O)C[C@@]2(C)[C@H]1CC[C@]2(O)C(=O)CO [Hydrocortisone, hydrocortisone]	0.08	0.08	61000	35	26000	–	–
CCN[C@H]1C[C@H](C)S(=O)(=O)c2sc(S(N)(=O)=O)cc21 [dorzolamide]	–	–	–	–	–	not introduced	–
O=C(O)CCCC[C@@H]1SC[C@@H]2NC(=O)N[C@@H]21 [biotin]	–	–	–	–	–	not introduced	–
O=c1ccc2ccccc2o1 [coumarin]	–	–	–	–	–	–	ratio of the weight of the low-molecular weight compound to the total sum of the weights of the compound and the porous γ-plu108-NS crosslinked body [1]: 0.5 wt %; ratio of the weight of the low-molecular weight compound to the total sum of the weights of the compound and the porous γ-PPG4k-Plate crosslinked body [2]: 0.6 wt %

— patent US20240299303A1, “NANOSTRUCTURE OR MICROSTRUCTURE AND METHOD FOR PRODUCING SAME” (The University of Tokyo, priority 2021, published 2024)
